In ChEMBL document CHEMBL1697821, “Development of a phospholipidosis database and predictive quantitative structure-activity relationship (QSAR) models” (Toxicol Mech Methods, 2008):

System: Phospholipidosis
Experiment: Literature-mined public compounds from Kruhlak et al phospholipidosis modelling dataset

SMILES: CCCCCCc1ccc(O)cc1O [HEXYLRESORCINOL]
- Phospholipidosis: Negative: based on the absence of positive reported data from WMDD

SMILES: NCCc1c[nH]cn1 [HISTAMINE]
- Phospholipidosis: Negative: based on the absence of positive reported data from WMDD

SMILES: C[N+]1(C)[C@@H]2CC[C@H]1C[C@@H](OC(=O)C(O)c1ccccc1)C2.[Br-] (some centres undefined) [HOMATROPINE METHYLBROMIDE]
- Phospholipidosis: Negative: based on the absence of positive reported data from WMDD

SMILES: CN1CCCN(C(c2ccccc2)c2ccc(Cl)cc2)CC1 (centres undefined) [HOMOCHLORCYCLIZINE]
- Phospholipidosis: Positive: strong inducer confirmed by electron microscopy

SMILES: NNc1nncc2ccccc12 [HYDRALAZINE]
- Phospholipidosis: Negative: based on the absence of positive reported data from WMDD

SMILES: NS(=O)(=O)c1cc2c(cc1C(F)(F)F)NCNS2(=O)=O [HYDROFLUMETHIAZIDE]
- Phospholipidosis: Negative: based on the absence of positive reported data from WMDD

SMILES: N=C(N)c1ccc(/C=C/c2ccc(C(=N)N)cc2O)cc1 [HYDROXYSTILBAMIDINE]
- Phospholipidosis: Negative: based on the absence of positive reported data from WMDD

SMILES: OCCOCCN1CCN(C(c2ccccc2)c2ccc(Cl)cc2)CC1 (centres undefined) [HYDROXYZINE]
- Phospholipidosis: Positive: strong inducer confirmed by electron microscopy

SMILES: CC(=O)[C@]1(O)Cc2c(O)c3c(c(O)c2[C@@H](O[C@H]2C[C@H](N)[C@H](O)[C@H](C)O2)C1)C(=O)c1ccccc1C3=O [IDARUBICIN]
- Phospholipidosis: Negative: based on the absence of positive reported data from WMDD

SMILES: CN(C)CCCN1c2ccccc2CCc2ccccc21 [IMIPRAMINE]
- Phospholipidosis: Positive: strong inducer confirmed by electron microscopy

SMILES: Nc1cc(-c2ccncc2)c[nH]c1=O [INAMRINONE]
- Phospholipidosis: Negative: based on the absence of positive reported data from WMDD

SMILES: CC1(C)C(/C=C/C=C/C=C/C=C2/N(CCCCS(=O)(=O)[O-])c3ccc4ccccc4c3C2(C)C)=[N+](CCCCS(=O)(=O)[O-])c2ccc3ccccc3c21.[Na+] [INDOCYANINE GREEN]
- Phospholipidosis: Negative: based on the absence of positive reported data from WMDD

SMILES: O=C(NC1CCN(CCc2c[nH]c3ccccc23)CC1)c1ccccc1 [INDORAMIN]
- Phospholipidosis: Positive: strong inducer confirmed by electron microscopy

SMILES: O[C@H]1[C@H](O)[C@@H](O)[C@H](O)[C@@H](O)[C@H]1O [INOSITOL]
- Phospholipidosis: Negative: based on the absence of positive reported data from WMDD

SMILES: CC(=O)NCc1c(I)c(NC(C)=O)c(I)c(C(=O)O)c1I [IODAMIDE]
- Phospholipidosis: Negative: based on the absence of positive reported data from WMDD

SMILES: O=C(CCCCC(=O)Nc1c(I)cc(I)c(C(=O)O)c1I)Nc1c(I)cc(I)c(C(=O)O)c1I [IODIPAMIDE]
- Phospholipidosis: Negative: based on the absence of positive reported data from WMDD

SMILES: O=c1[nH]c(=S)[nH]cc1I [IODOTHIOURACIL]
- Phospholipidosis: Negative: based on the absence of positive reported data from WMDD

SMILES: CNC(=O)c1c(I)c(NC(C)=O)c(I)c(C(=O)O)c1I [IOTHALAMIC ACID]
- Phospholipidosis: Negative: based on the absence of positive reported data from WMDD

SMILES: CN(C)/C=N/c1c(I)cc(I)c(CCC(=O)O)c1I [IPODATE]
- Phospholipidosis: Negative: based on the absence of positive reported data from WMDD

SMILES: CN(C)CCCn1c2c(c3ccccc31)CCCCCC2 [IPRINDOLE]
- Phospholipidosis: Positive: strong inducer confirmed by electron microscopy

SMILES: CNC(C)CCC=C(C)C (centres undefined) [ISOMETHEPTENE]
- Phospholipidosis: Negative: based on the absence of positive reported data from WMDD

SMILES: NNC(=O)c1ccncc1 [ISONIAZID]
- Phospholipidosis: Negative: based on the absence of positive reported data from WMDD

SMILES: CC(C)[N+](C)(CCC(C(N)=O)(c1ccccc1)c1ccccc1)C(C)C [ISOPROPAMIDE]
- Phospholipidosis: Negative: based on the absence of positive reported data from WMDD

SMILES: O=[N+]([O-])O[C@@H]1CO[C@H]2[C@@H]1OC[C@@H]2O [ISOSORBIDE MONONITRATE]
- Phospholipidosis: Negative: based on the absence of positive reported data from WMDD
